The target in one test is T1, 5-HT1A (h) (Homo sapiens, UniProt P08908).
T1 sequence (P08908 1-422): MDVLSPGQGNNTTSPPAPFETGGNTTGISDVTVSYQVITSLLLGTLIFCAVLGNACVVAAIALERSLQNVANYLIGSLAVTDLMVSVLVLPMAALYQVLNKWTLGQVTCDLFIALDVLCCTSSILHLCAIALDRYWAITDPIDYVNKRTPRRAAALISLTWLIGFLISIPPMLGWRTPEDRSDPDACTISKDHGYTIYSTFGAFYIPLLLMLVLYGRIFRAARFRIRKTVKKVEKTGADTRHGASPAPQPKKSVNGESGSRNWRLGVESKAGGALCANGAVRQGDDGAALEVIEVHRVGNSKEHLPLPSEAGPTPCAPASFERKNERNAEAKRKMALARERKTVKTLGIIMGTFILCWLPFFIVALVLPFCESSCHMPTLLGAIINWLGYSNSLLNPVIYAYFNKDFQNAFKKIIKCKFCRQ
The test is described as follows: 5-HT1A (h) (agonist radioligand). To be noted: read-out: Inhibition 5-HT1A (h) (agonist radioligand).

Test [1] deals with serine hydrolases in the mouse brain proteome (MBP). In words: Multiplex ABPP in mouse brain proteome. The test is classed as biochemical. The settings on record: for labeling selectivity in ABPP (covalent probes): mouse brain homogenates, broad range of concentrations; for selectivity in competitive ABPP (reversible probes): mouse brain proteome, membrane and cytosolic fraction, 1 μM. How it is done: K = [L][P] = 0.5 [L]T (FP50 − 0.5 [L]T) = FP − 0.5 [L] […]
Mouse brain sample preparation
Mouse tissues were isolated according to guidelines approved by the ethical committee of Leiden University. Male mouse brain (27 weeks old) was homogenized with glass beads (2x 1 min, bullet blender, speed 8) using cold lysis buffer (20 mM Hepes pH 7.2, 1 mM MgCl 2, 2 U/mL Benzonase). The membrane and cytosol were separated by centrifugation. The membrane fraction was resuspended in Hepes/DTT buffer. Protein concentration was determined with Bradford Assay, and samples were diluted to a final concentration of 2.0 mg/mL. Samples were snap -frozen in liquid nitrogen and stored at -80 °C until further use.
Lysate (19 µL, 2 µg/µL) was thawed on ice. For comparative ABPP (irreversible probes), 1 µL of probe (20x stock in DMSO) or pure DMSO was added to the sample, vortexed briefly, and in cubated for 30 minutes at RT. For competitive ABPP (reversible probes), 0.5 µL of the reversible probe (40x stock in DMSO) or pure DMSO (as vehicle) was added to the sample, vortexed briefly, and incubated for 30 […]
minutes at RT. Subsequently, 0.5 µL MB064 (40x stock in DMSO) was added to the proteome sample, vortexed briefly, and incubated for 10 minutes at RT, after which 0.5 µL FP-Bodipy-FL (40x stock in DMSO) was added, vortexed briefly and incubated for 10 minutes at RT. The final volume was 20 - 20.5 µL (5 - 7.5% DMSO). The reaction was quenched by the addition of 7.5 µL of 4*Laemmli-buffer (final concentrations: 60 mM Tris (pH 6.8), 2% (w/v) SDS, 10% (v/v) glycerol, 1.25% (v/v) β-mercaptoethanol, 0.01% (v/v) bromophenol blue). 10 µL (14 µg protein) of the quenched reaction mixture was resolved on 10% acrylamide SDS-PAGE (180 V, 75 min). Fluorescence was measured using a Biorad ChemiDoc MP system (fluorescence channels Cy2, Cy3, Cy5). Gels were then stained using coomassie staining and imaged for protein loading control. Labeling of the respective proteins via MB064 and FP-BODIPY was visualized in two separate channels. […]
Activity based protein profiling (ABPP)
PBMCs were thawed, washed with 1 x PBS and equal amounts of cells were exposed to DMSO (D2650; Sigma-Aldrich) or MAGL inhibitor PF (PF-06795071) in DMSO for 30 min at room temperature with concentrations ranging from 1 nM to 1000 nM. Cells were washed with 1 x PBS and lysed in ice -cold lysis buffer (ab156035; Abcam), lysates were centrifuged at 14,000 x g for 15 minutes at 4°C and supernatants were collected. For ABPP experiments, cell lysates containing equal amounts of protein were incubated with the appropriate concentration of activity -based probe for 30 min at room temperature. The reaction was quenched for 30 min by adding SDS -PAGE loading buffer (NP0007, Thermo). Samples were then separated by SDS-PAGE and bands were detected ChemiDoc Imager (Bio-Rad Laboratories). Following detection, gels were stained with SimplyBlue™ SafeStain (LC6060, Thermo) for 1 hour with gentle agitation and excess stain was removed by destaining in ddH2O for 1 h with gentle agitation. Gels were imaged and protein bands were quantified using Image Lab software (Bio-Rad Laboratories).

A further test concerns the target T2, GR (h) (Homo sapiens, UniProt P04150).
T2 sequence (P04150 1-777): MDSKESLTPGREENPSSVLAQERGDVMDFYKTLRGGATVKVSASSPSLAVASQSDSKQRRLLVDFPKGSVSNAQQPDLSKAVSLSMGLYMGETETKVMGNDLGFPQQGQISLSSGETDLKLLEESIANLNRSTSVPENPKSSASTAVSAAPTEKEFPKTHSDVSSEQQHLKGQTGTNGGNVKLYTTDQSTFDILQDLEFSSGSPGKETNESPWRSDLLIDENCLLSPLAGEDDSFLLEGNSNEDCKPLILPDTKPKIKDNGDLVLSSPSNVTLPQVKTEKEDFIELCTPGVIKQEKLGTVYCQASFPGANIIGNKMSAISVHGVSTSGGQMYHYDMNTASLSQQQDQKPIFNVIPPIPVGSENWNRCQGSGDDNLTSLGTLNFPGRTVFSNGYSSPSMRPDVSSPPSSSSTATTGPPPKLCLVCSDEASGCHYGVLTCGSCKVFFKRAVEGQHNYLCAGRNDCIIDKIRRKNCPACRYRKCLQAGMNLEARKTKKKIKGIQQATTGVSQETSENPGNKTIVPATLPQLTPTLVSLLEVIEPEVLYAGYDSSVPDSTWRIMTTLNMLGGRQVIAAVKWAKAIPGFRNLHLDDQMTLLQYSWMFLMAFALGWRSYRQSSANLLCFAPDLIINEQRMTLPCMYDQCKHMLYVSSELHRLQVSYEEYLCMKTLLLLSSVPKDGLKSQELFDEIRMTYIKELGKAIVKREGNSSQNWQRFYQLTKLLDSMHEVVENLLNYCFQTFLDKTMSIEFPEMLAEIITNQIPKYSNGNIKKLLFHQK
The test is described as follows: GR (h) (agonist radioligand). To be noted: read-out: Inhibition GR (h) (agonist radioligand).

`O=C(O[C@H](CO)C(F)(F)F)N1CC2(CC(CC3=C4C=CC=[N+]4[B-](F)(F)n4cccc43)C2)C1` [Compound 1]: the results for the inhibition at 10 µM at 5-HT1A (h) and at GR (h) were 0% and 13.9%, respectively. Also, the “labeling selectivity in ABPP (covalent probes)” value in test [1] is listed as “only selective irreversible labeling of the two MAGL isoforms”.
Consider `O=C(N1CC2(CC(CC3=C4C=CC=[N+]4[B-](F)(F)n4cccc43)C2)C1)N1CC2(CC(n3cnc(C4CC4)n3)C2)C1` [Compound 5], for which the inhibition at 10 µM at 5-HT1A (h) stood at 2.4%; at GR (h) it was 17.1%. In test [1], the “selectivity in competitive ABPP (reversible probes)” value (“selectivity in competitive ABPP” below) is “no other potential off-target detectable”.
For the compound `O=C1CO[C@H]2CCN(C(=O)N3CC4(CC(CC5=C6C=CC=[N+]6[B-](F)(F)n6cccc65)C4)C3)C[C@H]2N1` [Compound 4], the “selectivity in competitive ABPP” value in test [1] is “no other potential off-target detectable”.
Regarding `O=C1CO[C@H]2CCN(C(=O)N3CC4(CC(CC5=C6C=CC(c7ccc[nH]7)=[N+]6[B-](F)(F)n6cccc65)C4)C3)C[C@H]2N1` [Compound 4a], the figures for the inhibition at 10 µM at 5-HT1A (h) and at GR (h) were -2.4% and 48.1%, respectively. The “selectivity in competitive ABPP” value in test [1] is “no other potential off-target detectable”.
For `O=C(OC(C(F)(F)F)C(F)(F)F)N1CC2(CC(CC3=C4C=CC(c5ccc[nH]5)=[N+]4[B-](F)(F)n4cccc43)C2)C1` [Compound 2a], the inhibition at 10 µM on 5-HT1A (h) was -5.5%; on GR (h), 26.3%. The “labeling selectivity in ABPP (covalent probes)” value in test [1] is on record as “only selective irreversible labeling of the two MAGL isoforms”.
The like results for `O=C(OC(C(F)(F)F)C(F)(F)F)N1CC2(CC(CC3=C4C=CC=[N+]4[B-](F)(F)n4cccc43)C2)C1` [Compound 2] were, in that order, -29.4%, 9.1% and “only selective irreversible labeling of the two MAGL isoforms”.

What is called inhibition is the change of the read-out against control, counted positive when it falls.

For the origin of these results see PMC11951083, “Highly Specific Miniaturized Fluorescent Monoacylglycerol Lipase Probes Enable Translational Research” (Journal of the American Chemical Society, 2025).
